Patent publication US20210318318A1, “Kinase Activity In Tumors” (Institute For Cancer Research d/b/a The Research Institute …, priority 2018, published 2021)

Experiments:
SNU-119 = assay: Short-term growth assay (CellTiter-Glo cell viability), kinase inhibitors; type: cell-based, human; settings: drug 1.2 uM
Procedure: (§1) Cell viability was determined by Cell Titer Glo analysis.
(§2) To explore the therapeutic potential of the HGSOC kinome signature, a detailed molecular analysis of protein levels/activity, growth and survival functions was carried out in a panel of recently validated HGSOC cell lines (Coscia et al., Nat. Commun., 2016, 7, 12645) that harbor commonly encountered HGSOC mutations and genetic rearrangements (see, FIG. 5A).
(§3) For short-term growth assays, 3000-5000 cells were plated per well in 96-well plates and allowed to adhere and equilibrate overnight. Drug was added the following morning and after 120 hours of drug treatment, cell viability was assessed using the CellTiter-Glo Luminescent cell viability assay according to manufacturer (Promega). Students t tests were performed for statistical analyses and p values ≤0.05 were considered significant. For colony formation assays, cells were plated in 24-well dishes (3000-5000 cells per well) and incubated overnight before continuous drug treatment for 14 days, with drug and media replaced twice weekly. At the end of treatment, cells were rinsed with PBS and fixed with chilled methanol for 10 minutes at −20° C. Methanol was removed by aspiration, and cells were stained with 0.5% crystal violet in 20% methanol for 20 minutes at room temperature, washed with distilled water, and scanned.

OVSAHO = assay: as above; type: cell-based, human; settings: drug 1.2 uM
Procedure: as §1, §2, §3

Kuramochi = assay: as above; type: cell-based, human; settings: drug 1.2 uM
Procedure: as §1, §2, §3

OVCAR4 = assay: as above; type: cell-based, human; settings: drug 1.2 uM
Procedure: as §1, §2, §3

MRCKB = target: T1, MRCKB (Homo sapiens, UniProt Q9Y5S2); assay: MIB/MS kinome profiling of inhibitor-treated OVSAHO cells; type: cell-based; settings: 2 μM, 4 hour treatment
T1 construct: endogenous in cells; host or cells: OVSAHO
Procedure: (§4) OVSAHO cells were treated with inhibitors at a dose of 2 μM for 4 hours and kinase inhibition profiles determined by MIB/MS. Bar graph depicts % of kinase bound to MIBs relative to DMSO control as determined by label free quantitation.
(§5) OVSAHO cells were treated with 2 μM of inhibitor for 4 hours and analyzed by MIB/MS. Scatterplot depicts difference in kinase MIB-binding of drug treated relative to control DMSO as determined by Students T-test.
(§6) MIB-based kinome profiling was performed on several of these molecules in HGSOC cells to determine kinome-wide inhibition profiles.
(§7) Experiments using MIB/MS were performed as previously described (Duncan et al., Cell, 2012, 149, 307-321; and Kurimchak et al., Cell Reports, 2016, 16, 1273-1286). Briefly, cells or tumors were lysed on ice in buffer containing 50 mM HEPES (pH 7.5), 0.5% Triton X-100, 150 mM NaCl, 1 mM EDTA, 1 mM EGTA, 10 mM sodium fluoride, 2.5 mM sodium orthovanadate, 1× protease inhibitor cocktail (Roche), and 1% each of phosphatase inhibitor cocktails 2 and 3 (Sigma). Particulate was removed by centrifugation of lysates at 13,000 rpm for 10 minutes at 4° C. and filtration through 0.2 μm syringe filters. Protein concentrations were determined by BCA analysis (Thermo). To compare kinome signatures within and across such large sample sizes, a super-SILAC method was designed (Neubert et al., Nat. Meth., 2010, 7, 361-362) consisting of a cocktail of cancer cell lines that encompasses the activity of the “cancer kinome” to be used as a control for individual samples. Five cancer cell lines were selected from the NCI-60 panel (UACC257, MOLT4, COL0205, ACHN and PC3) that differed in their origin, gene expression patterns and mutation status. The cancer cell lines were labeled using SILAC and mixed equally providing a diverse SILAC ([^13C6,^15N4] arginine (Arg^10) and […] (Lys^8)) heavy kinome reference standard (HKS) to be used repeatedly in kinome profiling assays. An equal amount of the HKS was added to the non-labeled sample (cell, tumor or normal tissue) providing a quantitative strategy to compare kinome activity/levels across samples, amongst treatments and, importantly, across time. […]
(§8) Proteolytic peptides were resuspended in 0.1% formic acid and separated with a Thermo RSLC Ultimate 3000 on a Thermo Easy-Spray C18 PepMap 75 μm×50 cm C-18 2 μm column with a 240 minute gradient of 4-25% acetonitrile with 0.1% formic acid at 300 nL/min and 50° C. Eluted peptides were analyzed by a Thermo Q Exactive plus mass spectrometer utilizing a top 15 methodology in which the 15 most intense peptide precursor ions were subjected to fragmentation.

COV362 = assay: Short-term growth assay (CellTiter-Glo cell viability), kinase inhibitors; type: cell-based, human; settings: drug 1.2 uM
Procedure: as §1
COV362 cells were treated with increasing concentrations of A-674563 and cell viability assessed by Cell Titer Glo according to manufacturer's instructions. Data represent the mean of six replicates.
as §2, §3

MRCKA = MRCKA (Homo sapiens, UniProt Q5VT25); assay: MIB/MS kinome profiling of inhibitor-treated OVSAHO cells; type: cell-based; set-up: endogenous in cells; host or cells: OVSAHO; settings: 2 μM, 4 hour treatment
Procedure: as §4, §5, §6, §7, §8

HGSOC cells [1] = assay: Drug response in cells depleted of MRCKA by siRNA (Cell Titer Glo, cleaved PARP blots); type: cell-based, human
Procedure: (§9) Cells transfected with control or MRKCA siRNAs were treated with increasing doses of carboplatin. Cell viability was assessed by Cell Titer Glo according to manufacturer's instructions. Data represent the mean of six replicates. GR50 were determined using PRISM.
Cells transfected with control or MRKCA siRNAs were treated with increasing doses of olaparib. Cell viability was assessed by Cell Titer Glo according to manufacturer's instructions. Data represent the mean of six replicates. GR50 were determined using PRISM.
(§10) To explore if blocking dark kinases AAK1, STK38 or MRCKA activity in combination with current therapies improves drug efficacy, OVCAR4 cells depleted of AAK1, STK38 or MRCKA were treated with increasing doses of carboplatin, olaparib, JQ1, or a variety of kinase inhibitors in clinical trials for HGSOC.
(§11) siRNA transfections were performed using 25 nM siRNA duplex and the reverse transfection protocol. 3000-5000 cells per well were added to 96 well plates with media containing the siRNA and transfection reagent (Lipofectamine RNAiMax) according to the manufacturer's instructions. In experiments where inhibitors were used, the inhibitor was added at the time of transfection. Cells were allowed to grow for 72-120 hours post-transfection prior to CellTiter Glo (Promega) analysis. Two-to-three independent experiments were performed with each cell line and siRNA. Students t tests were performed for statistical analyses and p values ≤0.05 were considered significant. For western blot studies, the same procedure was performed with volumes and cell numbers proportionally scaled to a 60 mm or 10 cm dish, and cells were collected 24-72 hours post-transfection. siRNA product numbers and manufacturers are listed in Table 5.

OVCAR4 cells = assay: Drug growth inhibition in cells depleted of dark kinases by siRNA (Cell Titer Glo); type: cell-based, human; settings: increasing doses of drug
Procedure: OVCAR4 cells were transfected with control nontargeting or dark kinase siRNAs and treated with escalating doses of appropriate drugs.
as §10, §11

ROCK1 = target: T2, ROCK1 (Homo sapiens, UniProt Q13464); assay: MIB/MS kinome profiling of inhibitor-treated OVSAHO cells; type: cell-based; settings: 2 μM, 4 hours
T2 construct: endogenous in cells; host or cells: OVSAHO
Procedure: as §5
Scatter plot depicts statistical differences in MIB-binding as a ratio of inhibitor/DMSO. Cells were treated with inhibitors at a dose of 2 μM and subjected to MIB/MS. Changes in MIB-binding were quantified using label free quantitation. Data presented in (A) are triplicate experiments SEM. *p≤0.05 by student's t-test.
as §6
Experiments using MIB/MS were performed as previously described (Duncan et al., Cell, 2012, 149, 307-321; and Kurimchak et al., Cell Reports, 2016, 16, 1273-1286). […] Protein concentrations were determined by BCA analysis (Thermo). […] An equal amount of the HKS was added to the non-labeled sample (cell, tumor or normal tissue) providing a quantitative strategy to compare kinome activity/levels across samples, amongst treatments and, importantly, across time. […]

[2] = system: FAK1, MLC and Paxillin phosphorylation; FAK1 and CHEK1 protein levels; assay: Western blot of signaling in inhibitor-treated HGSOC cells; type: cell-based, human; settings: HGSOC (COV362) cells, increasing doses 0.5, 1 or 3 μM, 48 hours
Procedure: COV362 cells were treated with 0.5, 1 or 3 μM of A-674563 or SB-772077 for 48 hours and signaling monitored by western blot.
Samples were harvested in MIB lysis buffer, subjected to SDS-PAGE […] and transferred to PVDF membranes before western blotting with primary antibodies. For pMYPT and pMLC blots, cells were harvested in a buffer containing 1% (w/v) SDS, 50 mM Tris pH 7.5 supplemented with protease and phosphatase inhibitors buffer and were passed through QIAshredder columns (Qiagen, 79654), (Unbekandt et al., Cell Commun. Signal., 2014, 12, 54). For the list of primary antibodies used, see Table 4. Secondary HRP-anti-rabbit and HRP-anti-mouse were obtained from ThermoFisher Scientific. SuperSignal West Pico and Femto Chemiluminescent Substrates (Thermo) were used to visualize blots.

ROCK2 = target: T3, ROCK2 (Homo sapiens, UniProt O75116); assay: MIB/MS kinome profiling of inhibitor-treated OVSAHO cells; type: cell-based; settings: 2 μM, 4 hours
T3 construct: endogenous in cells; host or cells: OVSAHO
Procedure: as §5, §6
Experiments using MIB/MS were performed as previously described (Duncan et al., Cell, 2012, 149, 307-321; and Kurimchak et al., Cell Reports, 2016, 16, 1273-1286). Briefly, cells or tumors were lysed on ice in buffer containing 50 mM HEPES (pH 7.5), 0.5% Triton X-100, 150 mM NaCl, 1 mM EDTA, 1 mM EGTA, 10 mM sodium fluoride, 2.5 mM sodium orthovanadate, 1× protease inhibitor cocktail (Roche), and 1% each of phosphatase inhibitor cocktails 2 and 3 (Sigma). Particulate was removed by centrifugation of lysates at 13,000 rpm for 10 minutes at 4° C. and filtration through 0.2 μm syringe filters. Protein concentrations were determined by BCA analysis (Thermo). To compare kinome signatures within and across such large sample sizes, a super-SILAC method was designed (Neubert et al., Nat. Meth., 2010, 7, 361-362) consisting of a cocktail of cancer cell lines that encompasses the activity of the “cancer kinome” to be used as a control for individual samples. […] An equal amount of the HKS was added to the non-labeled sample (cell, tumor or normal tissue) providing a quantitative strategy to compare kinome activity/levels across samples, amongst treatments and, importantly, across time. […]
as §8

HGSOC cells [3] = assay: Cell viability of HGSOC cell line panel (Cell Titer Glo); type: cell-based, human; settings: increasing concentrations; Cell Titer Glo
Procedure: Cells were treated with increasing concentrations of PF-03758309 and cell viability assessed by Cell Titer Glo according to manufacturer's instructions. Data represent the mean of six replicates.
Cell viability was assessed by Cell Titer Glo according to manufacturing. Data represent the mean of six replicates.
as §3

[4] = system: carboplatin-resistant COV362 cells; assay: Carboplatin response in cells depleted of MRCKA by siRNA; type: cell-based, human
Procedure: as §9, §10
as §11, with “For western blot studies, the same procedure was performed with volumes and cell numbers proportionally scaled to a 60 mm or 10 cm dish, and cells were collected 24-72 hours post-transfection. siRNA product numbers and manufacturers are listed in Table 5.” left out

T1 sequence (Q9Y5S2 whole entry): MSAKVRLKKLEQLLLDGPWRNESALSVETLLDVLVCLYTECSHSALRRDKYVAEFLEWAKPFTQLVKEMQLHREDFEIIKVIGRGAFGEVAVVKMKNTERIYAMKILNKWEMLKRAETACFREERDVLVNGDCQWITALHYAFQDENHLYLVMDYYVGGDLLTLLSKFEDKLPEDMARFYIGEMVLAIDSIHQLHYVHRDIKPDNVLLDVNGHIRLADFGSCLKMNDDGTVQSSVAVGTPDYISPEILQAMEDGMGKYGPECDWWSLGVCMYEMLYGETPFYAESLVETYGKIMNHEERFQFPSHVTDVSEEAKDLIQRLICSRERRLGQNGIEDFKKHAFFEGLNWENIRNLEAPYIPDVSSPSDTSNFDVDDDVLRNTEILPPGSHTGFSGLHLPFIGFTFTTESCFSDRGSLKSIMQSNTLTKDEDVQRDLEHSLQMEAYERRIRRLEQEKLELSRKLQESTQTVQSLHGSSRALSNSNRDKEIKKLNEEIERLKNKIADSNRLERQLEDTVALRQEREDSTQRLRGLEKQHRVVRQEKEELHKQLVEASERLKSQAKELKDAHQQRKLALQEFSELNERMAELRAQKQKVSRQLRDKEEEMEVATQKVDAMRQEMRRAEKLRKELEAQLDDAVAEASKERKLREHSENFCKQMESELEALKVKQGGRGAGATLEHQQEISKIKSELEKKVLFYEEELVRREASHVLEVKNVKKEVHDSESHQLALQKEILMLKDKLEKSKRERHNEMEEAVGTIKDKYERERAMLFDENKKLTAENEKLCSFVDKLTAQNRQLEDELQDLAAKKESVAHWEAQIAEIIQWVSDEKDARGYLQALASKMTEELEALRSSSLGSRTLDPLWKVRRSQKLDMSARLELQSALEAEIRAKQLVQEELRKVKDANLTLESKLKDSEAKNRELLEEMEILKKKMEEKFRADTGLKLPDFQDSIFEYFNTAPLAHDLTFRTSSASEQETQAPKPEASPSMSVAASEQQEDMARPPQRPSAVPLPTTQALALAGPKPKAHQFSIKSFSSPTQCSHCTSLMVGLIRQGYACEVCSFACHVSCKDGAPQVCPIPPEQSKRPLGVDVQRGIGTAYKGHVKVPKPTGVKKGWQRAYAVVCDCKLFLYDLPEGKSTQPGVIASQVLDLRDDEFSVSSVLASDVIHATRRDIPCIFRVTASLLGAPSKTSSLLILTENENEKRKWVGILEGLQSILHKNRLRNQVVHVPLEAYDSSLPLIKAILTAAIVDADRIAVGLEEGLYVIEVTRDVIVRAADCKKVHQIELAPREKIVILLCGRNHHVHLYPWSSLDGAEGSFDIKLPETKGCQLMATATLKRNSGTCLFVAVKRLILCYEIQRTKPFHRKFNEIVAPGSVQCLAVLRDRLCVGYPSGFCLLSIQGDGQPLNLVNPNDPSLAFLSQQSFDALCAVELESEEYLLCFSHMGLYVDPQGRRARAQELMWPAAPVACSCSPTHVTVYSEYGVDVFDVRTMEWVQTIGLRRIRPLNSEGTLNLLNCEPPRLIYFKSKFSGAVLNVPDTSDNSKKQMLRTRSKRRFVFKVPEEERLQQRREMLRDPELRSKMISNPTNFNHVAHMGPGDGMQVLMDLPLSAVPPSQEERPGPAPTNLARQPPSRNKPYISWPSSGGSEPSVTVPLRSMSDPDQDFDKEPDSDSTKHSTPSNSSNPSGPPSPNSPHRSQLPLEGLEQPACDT
Chain of MRCKA (Q5VT25 whole entry): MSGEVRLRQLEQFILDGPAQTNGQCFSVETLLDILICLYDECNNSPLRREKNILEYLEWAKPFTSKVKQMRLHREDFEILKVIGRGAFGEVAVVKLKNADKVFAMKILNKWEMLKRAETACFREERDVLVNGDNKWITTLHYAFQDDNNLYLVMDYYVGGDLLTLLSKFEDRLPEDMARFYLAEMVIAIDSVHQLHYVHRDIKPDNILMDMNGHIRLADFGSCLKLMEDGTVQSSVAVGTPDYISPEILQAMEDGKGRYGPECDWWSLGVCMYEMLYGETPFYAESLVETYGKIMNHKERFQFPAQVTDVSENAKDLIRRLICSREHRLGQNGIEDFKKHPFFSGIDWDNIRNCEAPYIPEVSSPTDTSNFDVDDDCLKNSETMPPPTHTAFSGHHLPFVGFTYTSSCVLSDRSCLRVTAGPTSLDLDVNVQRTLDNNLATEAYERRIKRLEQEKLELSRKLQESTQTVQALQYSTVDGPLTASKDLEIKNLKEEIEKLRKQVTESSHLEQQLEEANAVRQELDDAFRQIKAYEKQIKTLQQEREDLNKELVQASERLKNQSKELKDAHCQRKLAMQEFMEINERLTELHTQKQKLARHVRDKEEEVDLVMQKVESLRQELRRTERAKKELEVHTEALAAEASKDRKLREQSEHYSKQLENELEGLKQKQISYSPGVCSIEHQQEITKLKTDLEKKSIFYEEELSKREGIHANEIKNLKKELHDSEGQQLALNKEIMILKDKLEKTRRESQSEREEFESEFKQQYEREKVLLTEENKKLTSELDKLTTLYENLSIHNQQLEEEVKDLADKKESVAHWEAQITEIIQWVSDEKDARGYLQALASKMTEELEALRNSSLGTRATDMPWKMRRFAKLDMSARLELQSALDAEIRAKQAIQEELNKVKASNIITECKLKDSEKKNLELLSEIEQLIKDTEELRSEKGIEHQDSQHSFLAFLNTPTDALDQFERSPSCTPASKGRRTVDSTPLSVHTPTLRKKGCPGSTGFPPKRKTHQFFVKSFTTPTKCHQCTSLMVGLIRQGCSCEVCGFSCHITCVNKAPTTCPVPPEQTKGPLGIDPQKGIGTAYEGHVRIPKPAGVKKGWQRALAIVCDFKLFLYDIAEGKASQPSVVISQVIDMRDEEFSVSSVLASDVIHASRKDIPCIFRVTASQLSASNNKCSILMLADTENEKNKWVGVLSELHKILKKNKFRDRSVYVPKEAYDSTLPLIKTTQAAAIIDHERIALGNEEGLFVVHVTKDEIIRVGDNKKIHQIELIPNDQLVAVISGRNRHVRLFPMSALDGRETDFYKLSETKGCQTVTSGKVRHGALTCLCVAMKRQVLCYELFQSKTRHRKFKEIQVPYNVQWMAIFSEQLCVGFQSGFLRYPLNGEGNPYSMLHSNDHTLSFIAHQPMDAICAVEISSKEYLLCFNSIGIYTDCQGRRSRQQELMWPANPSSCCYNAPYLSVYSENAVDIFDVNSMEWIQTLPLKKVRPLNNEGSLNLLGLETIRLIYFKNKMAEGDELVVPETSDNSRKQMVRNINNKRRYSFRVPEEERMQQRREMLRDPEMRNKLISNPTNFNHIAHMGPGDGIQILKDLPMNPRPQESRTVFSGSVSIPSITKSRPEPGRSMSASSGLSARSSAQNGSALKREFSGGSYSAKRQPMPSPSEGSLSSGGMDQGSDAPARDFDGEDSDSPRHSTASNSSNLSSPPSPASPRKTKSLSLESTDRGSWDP
T3 sequence (O75116 whole entry): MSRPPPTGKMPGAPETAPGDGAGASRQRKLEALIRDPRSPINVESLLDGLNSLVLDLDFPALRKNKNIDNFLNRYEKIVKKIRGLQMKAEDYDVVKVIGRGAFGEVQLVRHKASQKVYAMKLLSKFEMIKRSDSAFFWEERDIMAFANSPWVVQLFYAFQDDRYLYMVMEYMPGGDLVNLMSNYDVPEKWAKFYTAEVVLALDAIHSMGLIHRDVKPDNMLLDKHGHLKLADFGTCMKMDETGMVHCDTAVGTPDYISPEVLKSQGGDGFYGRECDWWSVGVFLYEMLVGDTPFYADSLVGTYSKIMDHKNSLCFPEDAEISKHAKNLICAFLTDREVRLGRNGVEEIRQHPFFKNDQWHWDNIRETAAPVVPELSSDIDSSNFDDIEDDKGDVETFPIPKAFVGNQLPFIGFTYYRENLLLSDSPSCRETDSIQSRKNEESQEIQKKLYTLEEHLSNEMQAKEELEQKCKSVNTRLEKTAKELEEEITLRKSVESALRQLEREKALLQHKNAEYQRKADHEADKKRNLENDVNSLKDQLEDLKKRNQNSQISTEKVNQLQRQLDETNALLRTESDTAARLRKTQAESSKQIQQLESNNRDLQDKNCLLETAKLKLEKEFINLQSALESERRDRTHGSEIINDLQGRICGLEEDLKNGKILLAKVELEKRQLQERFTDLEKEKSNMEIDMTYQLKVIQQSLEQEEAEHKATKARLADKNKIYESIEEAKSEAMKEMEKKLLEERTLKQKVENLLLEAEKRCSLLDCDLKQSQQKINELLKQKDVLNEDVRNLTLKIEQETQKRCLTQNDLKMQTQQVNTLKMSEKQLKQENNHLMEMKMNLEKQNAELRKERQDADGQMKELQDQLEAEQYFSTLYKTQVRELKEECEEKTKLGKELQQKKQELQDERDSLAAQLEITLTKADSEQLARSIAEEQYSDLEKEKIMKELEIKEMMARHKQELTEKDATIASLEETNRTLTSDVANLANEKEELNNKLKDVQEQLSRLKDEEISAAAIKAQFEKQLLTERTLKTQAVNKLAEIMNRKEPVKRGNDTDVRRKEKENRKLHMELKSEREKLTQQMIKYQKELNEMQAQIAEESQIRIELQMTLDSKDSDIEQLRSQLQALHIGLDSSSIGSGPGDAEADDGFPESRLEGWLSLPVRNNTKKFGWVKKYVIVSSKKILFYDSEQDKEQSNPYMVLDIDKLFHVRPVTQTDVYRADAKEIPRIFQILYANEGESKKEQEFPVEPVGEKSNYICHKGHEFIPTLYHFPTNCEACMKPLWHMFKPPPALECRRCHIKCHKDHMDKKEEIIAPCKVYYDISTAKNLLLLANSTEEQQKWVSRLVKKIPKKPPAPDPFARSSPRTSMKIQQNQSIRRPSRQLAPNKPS

## CS(=O)(=O)CCNCc1ccc(-c2ccc3ncnc(Nc4ccc(OCc5cccc(F)c5)c(Cl)c4)c3c2)o1 [Lapatinib]
SNU-119
  Kinase inhibition profile of HGSOC cells (growth inhibition, Cell Titer Glo): 0.15
OVSAHO
  Kinase inhibition profile of HGSOC cells (growth inhibition, Cell Titer Glo): 1.053
Kuramochi
  Kinase inhibition profile of HGSOC cells (growth inhibition, Cell Titer Glo): 0.9704
OVCAR4
  Kinase inhibition profile of HGSOC cells (growth inhibition, Cell Titer Glo): 0.974
MRCKB
  MIB-binding of MRCKB relative to DMSO: no effect
COV362
  Kinase inhibition profile of HGSOC cells (growth inhibition, Cell Titer Glo): 0.9973
MRCKA
  MIB-binding of MRCKA relative to DMSO: no effect

## O=C(c1cc(Cc2n[nH]c(=O)c3ccccc23)ccc1F)N1CCN(C(=O)C2CC2)CC1 [olaparib]
HGSOC cells [1]; HGSOC cells, increasing doses
  growth inhibitory and apoptotic response to drug with MRCKA knockdown: improved the growth inhibitory and apoptotic response
OVCAR4 cells
  growth inhibition by drug with MRCKA knockdown relative to non-targeting control siRNA: enhanced growth inhibition

## O=C(NCc1cccc(O)c1)Nc1nc(-c2ccncc2)cs1 [RKI-1447]
ROCK1
  MIB-binding of ROCK1: reduction in MIB-binding
[2]
  FAK1, MLC and Paxillin phosphorylation: reduced

## Fc1ccc(Cl)cc1-c1nc(Nc2ccncc2)c2nccnc2n1 [SD-208]
MRCKB
  MIB-binding of MRCKB relative to DMSO: no effect
MRCKA
  MIB-binding of MRCKA relative to DMSO: no effect

## CC1=C(C(=O)Nc2cc(Cl)c3[nH]ncc3c2)C(c2ccc(C(F)(F)F)cc2)CC(=O)N1 (stereo not drawn) [GSK466317A]
MRCKB
  MIB-binding of MRCKB relative to DMSO: Reduced MIB-binding
ROCK1
  MIB-binding of ROCK1: reduction in MIB-binding
ROCK2
  MIB-binding of ROCK2: reduction in MIB-binding
[2]
  FAK1, MLC and Paxillin phosphorylation: reduced
MRCKA
  MIB-binding of MRCKA relative to DMSO: Reduced MIB-binding

## CCn1c(-c2nonc2N)nc2cncc(C(=O)N3CC[C@H](N)C3)c21 [SB-772077-B]
ROCK2
  MIB-binding of ROCK2: reduction in MIB-binding
[2]
  FAK1, MLC and Paxillin phosphorylation: reduced

## Cc1nc(Nc2[nH]nc3c2CN(C(=O)N[C@H](CN(C)C)c2ccccc2)C3(C)C)c2sccc2n1 [PF03758039]
SNU-119
  Kinase inhibition profile of HGSOC cells (growth inhibition, Cell Titer Glo): 0.3505
OVSAHO
  Kinase inhibition profile of HGSOC cells (growth inhibition, Cell Titer Glo): 0.659
Kuramochi
  Kinase inhibition profile of HGSOC cells (growth inhibition, Cell Titer Glo): 0.4783
OVCAR4
  Kinase inhibition profile of HGSOC cells (growth inhibition, Cell Titer Glo): 0.2063
COV362
  Kinase inhibition profile of HGSOC cells (growth inhibition, Cell Titer Glo): 0.4916
HGSOC cells [3]
  cell viability of HGSOC cells: reduced cell viability to the greatest extent in OVCAR4 and KURMAOCHI cells

## N.N.O=C([O-])C1(C(=O)[O-])CCC1.[Pt+2] [carboplatin]
HGSOC cells [1]; HGSOC cell lines
  apoptosis (cleaved PARP) of drug plus MRCKA depletion: induced apoptosis better than individual therapies
HGSOC cells [1]; additional HGSOC cell lines, increasing doses
  effect of drug on cell viability with MRCKA depletion: enhanced the effect of carboplatin
[4]
  cell growth and apoptosis, MRCKA knockdown in combination with drug: inhibited cell growth and induced apoptosis
OVCAR4 cells
  growth inhibition by drug with MRCKA knockdown relative to non-targeting control siRNA: enhanced growth inhibition
